# Data taken from PubChem BioAssay AID1963428 (Molecular Pharmacology Branch, DTP, NCI, 2024).
# Tested on: 171881-019-R-J1-PDC complex spheroid growth, % test/control
# Experiment: Anticancer human tumor 171881-019-R-J1-PDC patient-derived invasive breast carcinoma cell line growth inhibition [Asc]
# Settings: for IC50: curve of first compound; for viability, T/C: stronger effect = lower value
# In short: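 Tumor cells were grown as multicellular spheroids with stromal HUVEC and mesenchymal stem cells and treated singly or in combination. Concentrations fell in half-log steps from the clinical Cmax, or from 10 microM where none was known.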
# [1] = second compound 0.01 µM, first compound 0.0316 µM
# [2] = second compound 0.01 µM, first compound 0.1 µM
# [3] = second compound 0.01 µM, first compound 0.316 µM
# [4] = second compound 0.01 µM, first compound 1 µM
# [5] = second compound 0.01 µM, first compound 3.16 µM
# [6] = second compound 0.01 µM, first compound 10 µM
# [7] = second compound 0.0316 µM, first compound 0.0316 µM
# [8] = second compound 0.0316 µM, first compound 0.1 µM
# [9] = second compound 0.0316 µM, first compound 0.316 µM
# [10] = second compound 0.0316 µM, first compound 1 µM
# [11] = second compound 0.0316 µM, first compound 3.16 µM
# [12] = second compound 0.0316 µM, first compound 10 µM
# [13] = second compound 0.1 µM, first compound 0.0316 µM
# [14] = second compound 0.1 µM, first compound 0.1 µM
# [15] = second compound 0.1 µM, first compound 0.316 µM
# [16] = second compound 0.1 µM, first compound 1 µM
# [17] = second compound 0.1 µM, first compound 3.16 µM
# [18] = second compound 0.1 µM, first compound 10 µM
# [19] = second compound 0.316 µM, first compound 0.0316 µM
# [20] = second compound 0.316 µM, first compound 0.1 µM
# [21] = second compound 0.316 µM, first compound 0.316 µM
# [22] = second compound 0.316 µM, first compound 1 µM
# [23] = second compound 0.316 µM, first compound 3.16 µM
# [24] = second compound 0.316 µM, first compound 10 µM
# [25] = second compound 1 µM, first compound 0.0316 µM
# [26] = second compound 1 µM, first compound 0.1 µM
# [27] = second compound 1 µM, first compound 0.316 µM
# [28] = second compound 1 µM, first compound 1 µM
# [29] = second compound 1 µM, first compound 3.16 µM
# [30] = second compound 1 µM, first compound 10 µM
# [31] = second compound 0.01 µM, first compound 0.00949 µM
# [32] = second compound 0.01 µM, first compound 0.03 µM
# [33] = second compound 0.01 µM, first compound 0.0949 µM
# [34] = second compound 0.01 µM, first compound 0.3 µM
# [35] = second compound 0.01 µM, first compound 0.949 µM
# [36] = second compound 0.01 µM, first compound 3 µM
# [37] = second compound 0.0316 µM, first compound 0.00949 µM
# [38] = second compound 0.0316 µM, first compound 0.03 µM
# [39] = second compound 0.0316 µM, first compound 0.0949 µM
# [40] = second compound 0.0316 µM, first compound 0.3 µM
# [41] = second compound 0.0316 µM, first compound 0.949 µM
# [42] = second compound 0.0316 µM, first compound 3 µM
# [43] = second compound 0.1 µM, first compound 0.00949 µM
# [44] = second compound 0.1 µM, first compound 0.03 µM
# [45] = second compound 0.1 µM, first compound 0.0949 µM
# [46] = second compound 0.1 µM, first compound 0.3 µM
# [47] = second compound 0.1 µM, first compound 0.949 µM
# [48] = second compound 0.1 µM, first compound 3 µM
# [49] = second compound 0.316 µM, first compound 0.00949 µM
# [50] = second compound 0.316 µM, first compound 0.03 µM
# [51] = second compound 0.316 µM, first compound 0.0949 µM
# [52] = second compound 0.316 µM, first compound 0.3 µM
# [53] = second compound 0.316 µM, first compound 0.949 µM
# [54] = second compound 0.316 µM, first compound 3 µM
# [55] = second compound 1 µM, first compound 0.00949 µM
# [56] = second compound 1 µM, first compound 0.03 µM
# [57] = second compound 1 µM, first compound 0.0949 µM
# [58] = second compound 1 µM, first compound 0.3 µM
# [59] = second compound 1 µM, first compound 0.949 µM
# [60] = second compound 1 µM, first compound 3 µM
# 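For viability, T/C in this document: spheroids exposed to compounds for 7 days.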
smiles,measurement,setting,value
C#Cc1c(F)ccc2cc(O)cc(-c3ncc4c(N5CC6CCC(C5)N6)nc(OCC56CCCN5CC(F)C6)nc4c3F)c12 (stereo not given) + CNC(C)C(=O)NC1CN(S(=O)(=O)c2cccc(S(=O)(=O)N3CCC4CCC(C(=O)NC(c5ccccc5)c5ccccc5)N4C(=O)C(NC(=O)C(C)NC)C3)c2)CCC2CCC(C(=O)NC(c3ccccc3)c3ccccc3)N2C1=O,IC50,second compound 0.01 µM,> 10 µM
same,IC50,second compound 0.0316 µM,> 10 µM
same,IC50,second compound 0.1 µM,> 10 µM
same,IC50,second compound 0.316 µM,> 10 µM
same,IC50,second compound 1 µM,> 10 µM
same,"viability, T/C",[1],98%
same,"viability, T/C",[2],116%
same,"viability, T/C",[3],125%
same,"viability, T/C",[4],187%
same,"viability, T/C",[5],254%
same,"viability, T/C",[6],248%
same,"viability, T/C",[7],107%
same,"viability, T/C",[8],107%
same,"viability, T/C",[9],131%
same,"viability, T/C",[10],216%
same,"viability, T/C",[11],261%
same,"viability, T/C",[12],255%
same,"viability, T/C",[13],105%
same,"viability, T/C",[14],122%
same,"viability, T/C",[15],134%
same,"viability, T/C",[16],168%
same,"viability, T/C",[17],247%
same,"viability, T/C",[18],245%
same,"viability, T/C",[19],102%
same,"viability, T/C",[20],109%
same,"viability, T/C",[21],109%
same,"viability, T/C",[22],170%
same,"viability, T/C",[23],214%
same,"viability, T/C",[24],230%
same,"viability, T/C",[25],99.3%
same,"viability, T/C",[26],109%
same,"viability, T/C",[27],138%
same,"viability, T/C",[28],170%
same,"viability, T/C",[29],219%
same,"viability, T/C",[30],235%
C=C(F)C(=O)N1CCN(c2nc(OCC3CCCN3C)nc3c2CCN(c2cccc4cccc(Cl)c24)C3)CC1CC#N (stereo not given) + CNC(C)C(=O)NC1CN(S(=O)(=O)c2cccc(S(=O)(=O)N3CCC4CCC(C(=O)NC(c5ccccc5)c5ccccc5)N4C(=O)C(NC(=O)C(C)NC)C3)c2)CCC2CCC(C(=O)NC(c3ccccc3)c3ccccc3)N2C1=O,IC50,second compound 0.01 µM,5.65 µM
same,IC50,second compound 0.0316 µM,5.51 µM
same,IC50,second compound 0.1 µM,5.69 µM
same,IC50,second compound 0.316 µM,5.54 µM
same,IC50,second compound 1 µM,5.41 µM
same,"viability, T/C",[1],93.5%
same,"viability, T/C",[2],91.3%
same,"viability, T/C",[3],95%
same,"viability, T/C",[4],101%
same,"viability, T/C",[5],113%
same,"viability, T/C",[6],1.9%
same,"viability, T/C",[7],90%
same,"viability, T/C",[8],88.8%
same,"viability, T/C",[9],76.7%
same,"viability, T/C",[10],112%
same,"viability, T/C",[11],112%
same,"viability, T/C",[12],0.82%
same,"viability, T/C",[13],95.9%
same,"viability, T/C",[14],97.2%
same,"viability, T/C",[15],100%
same,"viability, T/C",[16],104%
same,"viability, T/C",[17],107%
same,"viability, T/C",[18],1.02%
same,"viability, T/C",[19],81.3%
same,"viability, T/C",[20],91.1%
same,"viability, T/C",[21],86.1%
same,"viability, T/C",[22],106%
same,"viability, T/C",[23],111%
same,"viability, T/C",[24],2.51%
same,"viability, T/C",[25],90.3%
same,"viability, T/C",[26],84.6%
same,"viability, T/C",[27],86.5%
same,"viability, T/C",[28],95.5%
same,"viability, T/C",[29],106%
same,"viability, T/C",[30],1.17%
C=CC(=O)N1CCN(c2nc(=O)n(-c3c(C)ccnc3C(C)C)c3nc(-c4c(O)cccc4F)c(F)cc23)C(C)C1 (stereo not given) + CNC(C)C(=O)NC1CN(S(=O)(=O)c2cccc(S(=O)(=O)N3CCC4CCC(C(=O)NC(c5ccccc5)c5ccccc5)N4C(=O)C(NC(=O)C(C)NC)C3)c2)CCC2CCC(C(=O)NC(c3ccccc3)c3ccccc3)N2C1=O,IC50,second compound 0.01 µM,> 10 µM
same,IC50,second compound 0.0316 µM,> 10 µM
same,IC50,second compound 0.1 µM,> 10 µM
same,IC50,second compound 0.316 µM,> 10 µM
same,IC50,second compound 1 µM,> 10 µM
same,"viability, T/C",[1],105%
same,"viability, T/C",[2],94.4%
same,"viability, T/C",[3],84.8%
same,"viability, T/C",[4],96%
same,"viability, T/C",[5],95.7%
same,"viability, T/C",[6],85.8%
same,"viability, T/C",[7],110%
same,"viability, T/C",[8],97.7%
same,"viability, T/C",[9],97.8%
same,"viability, T/C",[10],85.7%
same,"viability, T/C",[11],85.2%
same,"viability, T/C",[12],80.3%
same,"viability, T/C",[13],99.2%
same,"viability, T/C",[14],92.4%
same,"viability, T/C",[15],95.9%
same,"viability, T/C",[16],98.6%
same,"viability, T/C",[17],96%
same,"viability, T/C",[18],96.2%
same,"viability, T/C",[19],95.1%
same,"viability, T/C",[20],95.3%
same,"viability, T/C",[21],103%
same,"viability, T/C",[22],107%
same,"viability, T/C",[23],94%
same,"viability, T/C",[24],86.8%
same,"viability, T/C",[25],110%
same,"viability, T/C",[26],110%
same,"viability, T/C",[27],86%
same,"viability, T/C",[28],96.6%
same,"viability, T/C",[29],96.2%
same,"viability, T/C",[30],96.8%
CCN1C(C(=O)NC23CCC(C(=O)O)(CC2)CC3)C(c2cccc(Cl)c2F)C2(C(=O)Nc3cc(Cl)ccc32)C12CCCCC2 (stereo not given) + CNC(C)C(=O)NC1CN(S(=O)(=O)c2cccc(S(=O)(=O)N3CCC4CCC(C(=O)NC(c5ccccc5)c5ccccc5)N4C(=O)C(NC(=O)C(C)NC)C3)c2)CCC2CCC(C(=O)NC(c3ccccc3)c3ccccc3)N2C1=O,IC50,second compound 0.01 µM,> 3 µM
same,IC50,second compound 0.0316 µM,> 3 µM
same,IC50,second compound 0.1 µM,> 3 µM
same,IC50,second compound 0.316 µM,> 3 µM
same,IC50,second compound 1 µM,> 3 µM
same,"viability, T/C",[31],91%
same,"viability, T/C",[32],108%
same,"viability, T/C",[33],117%
same,"viability, T/C",[34],109%
same,"viability, T/C",[35],110%
same,"viability, T/C",[36],138%
same,"viability, T/C",[37],109%
same,"viability, T/C",[38],118%
same,"viability, T/C",[39],104%
same,"viability, T/C",[40],112%
same,"viability, T/C",[41],105%
same,"viability, T/C",[42],138%
same,"viability, T/C",[43],130%
same,"viability, T/C",[44],117%
same,"viability, T/C",[45],104%
same,"viability, T/C",[46],111%
same,"viability, T/C",[47],117%
same,"viability, T/C",[48],132%
same,"viability, T/C",[49],110%
same,"viability, T/C",[50],120%
same,"viability, T/C",[51],91.2%
same,"viability, T/C",[52],123%
same,"viability, T/C",[53],99%
same,"viability, T/C",[54],132%
same,"viability, T/C",[55],102%
same,"viability, T/C",[56],110%
same,"viability, T/C",[57],112%
same,"viability, T/C",[58],101%
same,"viability, T/C",[59],121%
same,"viability, T/C",[60],132%
Cc1nc(N2CCC3(CC2)COC(C)C3N)c(CO)nc1Sc1ccnc(N)c1Cl (stereo not given) + CNC(C)C(=O)NC1CN(S(=O)(=O)c2cccc(S(=O)(=O)N3CCC4CCC(C(=O)NC(c5ccccc5)c5ccccc5)N4C(=O)C(NC(=O)C(C)NC)C3)c2)CCC2CCC(C(=O)NC(c3ccccc3)c3ccccc3)N2C1=O,IC50,second compound 0.01 µM,> 3 µM
same,IC50,second compound 0.0316 µM,> 3 µM
same,IC50,second compound 0.1 µM,> 3 µM
same,IC50,second compound 0.316 µM,> 3 µM
same,IC50,second compound 1 µM,> 3 µM
same,"viability, T/C",[31],119%
same,"viability, T/C",[32],132%
same,"viability, T/C",[33],192%
same,"viability, T/C",[34],239%
same,"viability, T/C",[35],205%
same,"viability, T/C",[36],165%
same,"viability, T/C",[37],116%
same,"viability, T/C",[38],163%
same,"viability, T/C",[39],214%
same,"viability, T/C",[40],279%
same,"viability, T/C",[41],211%
same,"viability, T/C",[42],164%
same,"viability, T/C",[43],120%
same,"viability, T/C",[44],147%
same,"viability, T/C",[45],196%
same,"viability, T/C",[46],237%
same,"viability, T/C",[47],175%
same,"viability, T/C",[48],155%
same,"viability, T/C",[49],111%
same,"viability, T/C",[50],140%
same,"viability, T/C",[51],203%
same,"viability, T/C",[52],229%
same,"viability, T/C",[53],181%
same,"viability, T/C",[54],147%
same,"viability, T/C",[55],119%
same,"viability, T/C",[56],148%
same,"viability, T/C",[57],183%
same,"viability, T/C",[58],250%
same,"viability, T/C",[59],171%
same,"viability, T/C",[60],142%
